Results taken from US8604202B2, “Thienopyridone derivatives as AMP-activated protein kinase (AMPK) activators” (Merck Patent GmbH, priority 2008, dated 2013).

biological target: T1, AMPK protein (recombinant α1β1γ2) (Homo sapiens, UniProt Q13131+Q9Y478); assay: AMPK enzymatic activity (Delfia, AMARA peptide); format: biochemical; settings: compound 30 μM vs AMP 30 μM; 125 μM ATP; 30 min room temperature; ratio 90% or higher = direct activator
T1 construct: made in house; host or cells: E. coli
Method: The following biological test allows the determination of the efficacy of such compounds of formula (I) onto AMPK protein (recombinant α1β1γ2).
Human recombinant AMPK enzyme was expressed in E. Coli and was reactivated in vitro by LKB1 prior to enzyme activity determination.
AMPK enzyme activities were assayed by using A Delfia technology. AMPK enzyme activities were carried out in microtiter plates (50 mM Hepes buffer, pH 7.4 with 125 μM ATP respectively) in the presence of a synthetic peptide substrate (AMARAASAAALARRR, the “AMARA” peptide) and activators in serial dilutions. Reactions were initiated by the addition of AMPK (50-100 ng). Following mixing, the plates were incubated for 30 min at room temperature. Enzyme activity was assayed by using an anti-phosphoserine antibody to measure the quantity of phosphate incorporated into the AMARAA.
Ratio between the % of control (basal activity) of compound of formula (I) at 30 μM and the % of control (basal activity) of AMP (natural substrate) at 30 μM. Compounds of formula (I) in the table II are considered as direct activator of AMPK if the ratio is 90% or higher.

T1 sequence (Q13131 whole entry): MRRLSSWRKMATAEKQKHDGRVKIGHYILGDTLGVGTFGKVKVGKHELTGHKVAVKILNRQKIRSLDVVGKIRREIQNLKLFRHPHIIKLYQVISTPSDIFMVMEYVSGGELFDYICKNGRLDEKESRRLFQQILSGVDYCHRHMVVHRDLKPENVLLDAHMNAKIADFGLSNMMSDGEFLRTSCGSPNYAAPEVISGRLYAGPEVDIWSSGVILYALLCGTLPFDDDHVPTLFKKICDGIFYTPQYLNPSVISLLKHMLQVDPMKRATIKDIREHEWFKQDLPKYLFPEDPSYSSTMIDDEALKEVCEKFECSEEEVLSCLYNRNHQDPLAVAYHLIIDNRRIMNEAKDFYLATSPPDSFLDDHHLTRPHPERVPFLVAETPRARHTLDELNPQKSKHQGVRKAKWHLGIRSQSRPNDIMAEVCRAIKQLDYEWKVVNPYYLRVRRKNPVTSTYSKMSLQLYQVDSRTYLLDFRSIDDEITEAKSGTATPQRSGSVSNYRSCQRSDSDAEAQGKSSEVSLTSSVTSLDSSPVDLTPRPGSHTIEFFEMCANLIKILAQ
T1 sequence (Q9Y478 whole entry): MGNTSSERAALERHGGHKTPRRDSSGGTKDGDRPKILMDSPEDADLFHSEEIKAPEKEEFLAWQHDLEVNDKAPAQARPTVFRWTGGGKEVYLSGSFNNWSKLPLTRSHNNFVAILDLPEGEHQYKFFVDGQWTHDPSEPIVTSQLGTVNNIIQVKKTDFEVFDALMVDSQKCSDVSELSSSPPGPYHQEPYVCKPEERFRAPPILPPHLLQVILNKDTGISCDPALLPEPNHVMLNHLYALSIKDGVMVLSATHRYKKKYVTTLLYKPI
T1 sequence (Q9UGJ0 whole entry partner): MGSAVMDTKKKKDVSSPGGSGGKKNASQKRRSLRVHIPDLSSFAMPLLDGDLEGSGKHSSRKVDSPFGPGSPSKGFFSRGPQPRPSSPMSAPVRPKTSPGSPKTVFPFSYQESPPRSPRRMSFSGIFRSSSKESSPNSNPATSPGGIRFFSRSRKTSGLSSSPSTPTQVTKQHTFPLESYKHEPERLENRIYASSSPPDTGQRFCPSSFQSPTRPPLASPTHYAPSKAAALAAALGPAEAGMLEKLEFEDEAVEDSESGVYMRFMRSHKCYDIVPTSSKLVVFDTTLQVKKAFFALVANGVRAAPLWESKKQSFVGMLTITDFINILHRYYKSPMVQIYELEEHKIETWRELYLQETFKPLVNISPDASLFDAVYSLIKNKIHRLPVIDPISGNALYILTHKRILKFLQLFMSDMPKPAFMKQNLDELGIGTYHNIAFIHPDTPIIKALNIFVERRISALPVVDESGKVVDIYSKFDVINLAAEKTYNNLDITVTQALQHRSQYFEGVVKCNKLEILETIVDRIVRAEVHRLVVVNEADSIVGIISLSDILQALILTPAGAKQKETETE

activity: Ratio between the % of control (basal activity) of compound of formula (I) at 30 μM and the % of control (basal activity) of AMP at 30 μM | Compound
138% | O=c1[nH]c2sc(Cl)c(-c3ccc(-c4ccccc4O)cc3)c2c(O)c1-c1ccccc1 [Compound 5, 2-chloro-4-hydroxy-3-(2′-hydroxybiphenyl-4-yl)-5-phenyl-6,7-dihydro-thieno[2,3-b]pyridin-6-one]
153% | O=c1[nH]c2scc(-c3ccc(-c4cccc(F)c4)cc3)c2c(O)c1-c1ccccc1 [Compound 10, 3-(3′-fluorobiphenyl-4-yl)-4-hydroxy-5-phenyl-6,7-dihydro-thieno[2,3-b]pyridin-6-one]
139% | O=c1[nH]c2scc(-c3ccc(-c4ccc(O)cc4)cc3)c2c(O)c1-c1ccccc1 [Compound 12, 4-hydroxy-3-(4′-hydroxybiphenyl-4-yl)-5-phenyl-6,7-dihydro-thieno[2,3-b]pyridin-6-one]
206% | O=c1[nH]c2scc(-c3ccc(-c4ccc(F)cc4)cc3)c2c(O)c1-c1ccccc1 [Compound 13, 3-(4′-fluorobiphenyl-4-yl)-4-hydroxy-5-phenyl-6,7-dihydro-thieno[2,3-b]pyridin-6-one]
176% | Cc1ccc(-c2ccc(-c3csc4[nH]c(=O)c(-c5ccccc5)c(O)c34)cc2)cc1 [Compound 14, 4-hydroxy-3-(4′-methylbiphenyl-4-yl)-5-phenyl-6,7-dihydro-thieno[2,3-b]pyridin-6-one]
101% | O=c1[nH]c2scc(-c3ccc(-c4ccc(C(F)(F)F)cc4)cc3)c2c(O)c1-c1ccccc1 [Compound 16, 4-hydroxy-5-phenyl-3-(4′-trifluoromethylbiphenyl-4-yl)-6,7-dihydro-thieno[2,3-b]pyridin-6-one]
116% | N#Cc1cccc(-c2ccc(-c3csc4[nH]c(=O)c(-c5ccccc5)c(O)c34)cc2)c1 [Compound 17, 3-(3′-cyanobiphenyl-4-yl)-4-hydroxy-5-phenyl-6,7-dihydro-thieno[2,3-b]pyridin-6-one]
217% | N#Cc1ccc(-c2ccc(-c3csc4[nH]c(=O)c(-c5ccccc5)c(O)c34)cc2)cc1 [Compound 19, 3-(4′-cyanobiphenyl-4-yl)-4-hydroxy-5-phenyl-6,7-dihydro-thieno[2,3-b]pyridin-6-one]
187% | O=c1[nH]c2scc(-c3ccc(-c4ccc(F)cc4O)cc3)c2c(O)c1-c1ccccc1 [Compound 21, 3-(4′-fluoro-2′-hydroxybiphenyl-4-yl)-4-hydroxy-5-phenyl-6,7-dihydro-thieno[2,3-b]pyridin-6-one]
163% | O=c1[nH]c2scc(-c3ccc(-c4ccc(F)cc4)cc3)c2c(O)c1-c1ccncc1 [Compound 23, 3-(4′-fluorobiphenyl-4-yl)-4-hydroxy-5-pyridin-4-yl-6,7-dihydro-thieno[2,3-b]pyridin-6-one]
191% | Cc1ccc(-c2ccc(-c3csc4[nH]c(=O)c(-c5ccncc5)c(O)c34)cc2)cc1 [Compound 24, 4-hydroxy-3-(4′-methylbiphenyl-4-yl)-5-pyridin-4-yl-6,7-dihydro-thieno[2,3-b]pyridin-6-one]
154% | COC(=O)c1ccc(-c2ccc(-c3csc4[nH]c(=O)c(-c5ccncc5)c(O)c34)cc2)cc1 [Compound 25, Methyl 4′-(4-hydroxy-6-oxo-5-pyridin-4-yl-6,7-dihydro-thieno[2,3-b]pyridin-3-yl)biphenyl-4-carboxylate]
258% | O=c1[nH]c2scc(-c3ccc(-c4ccccc4)cc3)c2c(O)c1-c1ccncc1 [Compound 26, 3-biphenyl-4-yl-4-hydroxy-5-pyridin-4-yl-6,7-dihydro-thieno[2,3-b]pyridin-6-one]
199% | O=c1[nH]c2scc(-c3ccc(-c4ccoc4)cc3)c2c(O)c1-c1ccncc1 [Compound 27, 3-[4-(3-furyl)phenyl]-4-hydroxy-5-pyridin-4-yl-6,7-dihydro-thieno[2,3-b]pyridin-6-one]
246% | O=c1[nH]c2scc(-c3ccc(-c4ccccc4O)cc3)c2c(O)c1-c1ccncc1 [Compound 28, 4-hydroxy-3-(2′-hydroxybiphenyl-4-yl)-5-pyridin-4-yl-6,7-dihydro-thieno[2,3-b]pyridin-6-one]
213% | O=c1[nH]c2scc(-c3ccc(-c4ccc(O)cc4)cc3)c2c(O)c1-c1ccncc1 [Compound 29, 4-hydroxy-3-(4′-hydroxybiphenyl-4-yl)-5-pyridin-4-yl-6,7-dihydro-thieno[2,3-b]pyridin-6-one]
212% | O=c1[nH]c2scc(-c3ccc(-c4ccncc4)cc3)c2c(O)c1-c1ccncc1 [Compound 30, 4-hydroxy-5-pyridin-4-yl-3-(4-pyridin-4-ylphenyl)-6,7-dihydro-thieno[2,3-b]pyridin-6-one]
143% | O=c1[nH]c2scc(-c3ccc(-c4ccccc4O)cc3)c2c(O)c1-c1cccnc1 [Compound 31, 4-hydroxy-3-(2′-hydroxybiphenyl-4-yl)-5-pyridin-3-yl-6,7-dihydro-thieno[2,3-b]pyridin-6-one]
159% | O=c1[nH]c2scc(-c3ccc(-c4ccccc4F)cc3)c2c(O)c1-c1cccnc1 [Compound 32, 3-(2′-fluorobiphenyl-4-yl)-4-hydroxy-5-pyridin-3-yl-6,7-dihydro-thieno[2,3-b]pyridin-6-one]
147% | O=c1[nH]c2scc(-c3ccc(-c4cccc(F)c4)cc3)c2c(O)c1-c1cccnc1 [Compound 33, 3-(3′-fluorobiphenyl-4-yl)-4-hydroxy-5-pyridin-3-yl-6,7-dihydro-thieno[2,3-b]pyridin-6-one]
165% | O=c1[nH]c2scc(-c3ccc(-c4ccc(F)cc4)cc3)c2c(O)c1-c1cccnc1 [Compound 34, 3-(4′-fluorobiphenyl-4-yl)-4-hydroxy-5-pyridin-3-yl-6,7-dihydro-thieno[2,3-b]pyridin-6-one]
168% | Cc1ccc(-c2ccc(-c3csc4[nH]c(=O)c(-c5cccnc5)c(O)c34)cc2)cc1 [Compound 37, 4-hydroxy-3-(4′-methylbiphenyl-4-yl)-5-pyridin-3-yl-6,7-dihydro-thieno[2,3-b]pyridin-6-one]
